# Entries after “also recorded” stand apart in the source; their conditions may differ.
# Key:
# [1] = cited from earlier work
# rat hippocampal neurons [2] = test: Live/Dead (Calcein/Ethidium) viability of rat hippocampal neuronal cultures; conditions: hydrochloride
# [3] = tested on: adult female Sprague-Dawley rats (ovariectomized); test: Locomotor activity after intra-accumbal Tat and IV cocaine (Example 4); format: in vivo, rat; conditions: IV cocaine 3.0 mg/kg, saline intra-accumbal
# Experimental: Animals. […] Ovariectomy was also performed on all rats during the same surgical procedure.
# Intra-accumbal TAT injection. A 2 treatment×2 drug, design was used. Thus, rats received bilateral injections of TAT or vehicle into the nucleus accumbens core and were subsequently administered an IV injection of cocaine (3.0 mg/kg/injection) or saline. Rats were administered intra-accumbal TAT or VEH injections according to methods previously described (Bansal et al., 2000). Briefly, 15 μg of Tat were injected bilaterally, using a Hamilton Syringe coated with Sigmacote, at the following coordinates: 1.8 mm anterior, ±1.6 mm lateral, and 7.0 mm ventral from bregma on the skull surface.
# Locomotor activity. The activity monitors were 16-cm diameter, round open-field chambers (Flex-Field, San Diego Instruments, San Diego, Calif.) that detected free movement of animals by infrared photocell interruptions. This equipment used an infrared photocell grid (32 emitter/detector pairs) to measure total locomotor activity. […]
# Drug Treatment. […] The dose of cocaine hydrochloride (3.0 mg/kg/day; Sigma, St. Louis, Mo.) was calculated on the weight of the salt and dissolved in saline for an injection volume of 1 ml/kg.
# rat hippocampal neurons [4] = test: Protein carbonyl immunoreactivity in rat hippocampal cell cultures; conditions: 48-hrs treatment
# human fetal neurons = tested on: human fetal neurons
# Experimental: Culture of Human Brain Cells: Neuronal cultures were prepared as described previously (Magnuson D S, et al. Ann Neurol 1995, 37: 373-380; Nath A, et al. J Virol 1996, 70: 1475-1480; New D, et al. J Neurovirol 1997, 3: 168-173). Human fetal brain specimens of gestational age 12-14 weeks were obtained with the consent of women opting for elective termination of pregnancy. Protocols were carried out with strict adherence to the guidelines of the National Institutes of Health (NIH) and with approval from the University of Kentucky Institutional Review Board. Briefly, after mechanical dissociation, the cells were suspended in Opti-MEM with 5% heat-inactivated fetal bovine serum, 0.2% N2 supplement and 1% antibiotic solution (penicillin G sodium 104 units/ml, streptomycin sulfate 10 μg/ml and amphotericin-B 25 μg/ml) (GIBCO). The cells were maintained in culture flasks at 37° C. in a humidified atmosphere of 5% CO2 and 95% air for at least a month. At least 3 days before the experiment was performed the cells were plated in flat bottom 96 well plates coated with poly-d-lysine. Sample cultures were stained for the neuron-specific enolase, microtubule-associated protein-2, synaptophysin, and glial fibrillary astrocytic protein (GFAP). […] Sample cultures were further characterized for the presence of ER-α and ER-β and dopaminergic neurons.
# Neurotoxicity Assay: At the time of the experimental treatment, the culture media was replaced with Locke's buffer containing (in mM) 154 NaCl, 5.6 KCl, 2.3 CaCl2, 1 MgCl2, 3.6 NaHCO3, 5 glucose, 5 N-2-hydroxyethylpiperazine-N′2-ethanesulfonic acid (HEPES) and 1% antibiotic solution (penicillin G sodium 104 units/ml, streptomycin sulfate 10 μg/ml and amphotericin-B 25 μg/ml) (pH 7.2). […] To replicate the stereoisomer specific neuroprotective properties of estrogen, the cultures were treated with either […] (10 nM), or 17α-E2 (10 nM) immediately preceding addition of the HIV proteins plus cocaine. To investigate the neuroprotective properties of other gonadal steroids, the cells were treated with various concentrations of PROG or T, immediately followed by exposure to the HIV proteins plus cocaine. […] Various concentrations of cholesterol were used as treatment prior to incubation with the HIV proteins plus cocaine to further characterize the nature of gonadal steroid neuroprotection. ICI-182,780, DMSO (10 nM), β-cyclodextrin (100 nM) and ethanol (10 nM) were also tested for neurotoxic/protective effects. ICI-182,780 and 17α-E2 were solvated in DMSO. […], T, PROG and cholesterol were β-cyclodextrin encapsulated to provide water solubility. Ethanol was used to solvate DHT. Tat1-72 was produced as indicated above, whereas gp120 was a gift from Chiron Corporation. The ICI-182,780 compound was obtained from Tocris Cookson, Inc. (Ellisville, Mo.). All other chemical agents were supplied by Sigma Chemicals (St. Louis, Mo.). At the end of the incubation period neuronal death was assessed by trypan blue (Sigma) exclusion assay as described previously (Vongher J and Frye C. Pharmacol Biochem Behav 1999, 64: 777-785; Magnuson D S, et al. Ann Neurol 1995, 37: 373-380; Nath A, et al. J Virol 1996, 70: 1475-1480).
# rat hippocampal neurons [5] = test: Intracellular ROS production (DCF fluorescence) in rat hippocampal neuronal cultures; format: cell-based
# Experimental: Neuronal cultures were incubated with 10 μM H2DCFDA (Molecular Probes, Eugene, Oreg.) for 60 min at 37° C. in PBS.
# No decrease in neuronal viability occur-red in cell cultures subjected to Tat alone or Tat+cocaine after 2 hours of treatment.
# [6] = repeated daily dosing in rat (Robinson et al. 1994)
smiles,measurement,setting,value
"COC(=O)[C@H]1[C@@H](OC(=O)c2ccccc2)C[C@@H]2CC[C@H]1N2C.Cl [cocaine, Cocaine hydrochloride]",time to peak arterial plasma levels,[1]; 3.0 mg/kg/injection IV (Booze et al. 1997),within one-minute
same,t1/2 in plasma,"[1]; IV 3.0 mg/kg, rats (Booze et al., 1997)",12 to 13 min
same,fetal brain levels of cocaine,[1]; [6],1750 ± 250 ng/mL
same,fetal plasma levels of cocaine,[1]; [6],500 ng/mL
same,"neuronal cell death / Tat toxicity, Tat + cocaine vs Tat alone","rat hippocampal neurons [2]; 50 nM Tat + 1.5-1.6 μM cocaine, 48 hours",significantly higher in cultures subjected to both Tat and cocaine; also recorded: enhanced Tat toxicity
same,"toxicity / cell viability, cocaine alone",rat hippocampal neurons [2]; cocaine alone (0.1-10 μM; 1.5 μM),No toxicity; also recorded: did not change cell viability
same,"centrally directed activity, cocaine",[3],cocaine-induced increase in centrally directed activity
same,"levels of protein oxidation, Tat + cocaine vs Tat alone",rat hippocampal neurons [4],higher than in cultures treated with just Tat alone
same,toxicity of HIV proteins combined with cocaine,human fetal neurons; Tat 40 nM + gp120 32.5 pM + cocaine 1.6 μM,synergistic neurotoxicity
same,toxicity alone vs Locke's buffer,"human fetal neurons; substance alone, 15 hours","Neither the HIV proteins, Tat plus gp120, nor cocaine alone were more toxic than the Locke's buffer control"
same,"intracellular ROS production, cocaine + Tat vs Tat alone","rat hippocampal neurons [5]; 1.6 μM cocaine + 50 nM Tat, 2 hours",increased intracellular ROS production relative to cultures treated with 50 nM Tat alone
same,"difference in DCF fluorescence, Tat+cocaine vs Tat",rat hippocampal neurons [5]; 48 hours of treatment,not significant
same,"DCF fluorescence, cocaine alone",rat hippocampal neurons [5]; cocaine alone,did not cause changes in DCF fluorescence
